Experimental data from patent publication US7906655B2, “Hepatitis C virus inhibitors” (Bristol-Myers Squibb Company, priority 2008, dated 2011).

The molecules below were run on HCV 1b genotype (assay: HCV Replicon assay (HCV-neo replicon cells, wild-type)). Conditions: HCV 1b genotype replicon; class symbols.
Type: cell-based
Procedure: An HCV Replicon assay was utilized in the present disclosure, and was prepared, conducted and validated as described in commonly owned PCT/US2006/022197 and in O'Boyle et. al. Antimicrob Agents Chemother. 2005 April; 49 (4):1346-53. Assay methods incorporating luciferase reporters have also been used as described (Apath.com).
HCV-neo replicon cells and replicon cells containing mutations in the NS5A region were used to test the currently described family of compounds. The compounds were determined to have more than 10-fold less inhibitory activity on cells containing mutations than wild-type cells. Thus, the compounds of the present disclosure can be effective in inhibiting the function of the HCV NS5A protein and are understood to be as effective in combinations as previously described in application PCT/US2006/022197 and commonly owned WO/O4014852. Further, the compounds of the present disclosure can be effective against the HCV 1b genotype. It should also be understood that the compounds of the present disclosure can inhibit multiple genotypes of HCV. […] In one embodiment, compounds of the present disclosure are inhibitory versus 1a, 1b, 2a, 2b, 3a, 4a, and 5a genotypes.

COC(=O)N[C@@H](C(=O)N1[C@@H]2C[C@@H]2C[C@H]1c1nc2cc(Oc3cccc(-c4ccc5[nH]c([C@@H]6C[C@H]7C[C@H]7N6C(=O)[C@H](NC(=O)OC)C(C)C)nc5c4)c3)ccc2[nH]1)C(C)C [Example V3, methyl ((1R)-1-(((1R,3S,5R)-3-(5-(3-(2-((1R,3S,5R)-2-((2R)-2-((methoxycarbonyl)amino)-3-methylbutanoyl)-2-azabicyclo[3.1.0]hex-3-yl)-1H-benzimidazol-5-yl)phenoxy)-1H-benzimidazol-2-yl)-2-azabicyclo[3.1.0]hex-2-yl)carbonyl)-2-methylpropyl) carbamate] gave an EC50 of 4.57 to 99 nM.

Same assay, conditions: Hepatitis C virus, HCV 1b genotype replicon; class symbols

O=C(CCOc1ccccc1)N1CCC[C@H]1c1nc2ccc(C#Cc3ccc4[nH]c([C@@H]5CCCN5C(=O)[C@H]5CCCO5)nc4c3)cc2[nH]1 [Example M54.15, 5-((2-((2S)-1-(3-phenoxypropanoyl)-2-pyrrolidinyl)-1H-benzimidazol-6-yl)ethynyl)-2-((2S)-1-((2R)-tetrahydro-2-furanylcarbonyl)-2-pyrrolidinyl)-1H-benzimidazole] and CC(=O)N1CCC[C@H]1c1nc2ccc(C#Cc3ccc4[nH]c([C@@H]5CCCN5C(=O)CC5CC5)nc4c3)cc2[nH]1 [Example M54.32, 5-((2-((2S)-1-acetyl-2-pyrrolidinyl)-1H-benzimidazol-6-yl)ethynyl)-2-((2S)-1-(cyclopropyl-acetyl)-2-pyrrolidinyl)-1H-benzimidazole] fall in the same range of EC50: 4.57 to 99 nM for the first, 4.57 to 99 nM for the second.

First: CC(=O)N1CCC[C@H]1c1nc2cc(C#Cc3ccc4[nH]c([C@@H]5CCCN5C(=O)OCc5ccccc5)nc4c3)ccc2[nH]1 [Example M54.26, benzyl (2S)-2-(5-((2-((2S)-1-acetyl-2-pyrrolidinyl)-1H-benzimidazol-5-yl)ethynyl)-1H-benzimidazol-2-yl)-1-pyrrolidine-carboxylate]
Second: O=C(Cc1cccnc1)N1CCC[C@H]1c1nc2cc(C#Cc3ccc4[nH]c([C@@H]5CCCN5C(=O)Cc5cccnc5)nc4c3)ccc2[nH]1 [Example M11, 5,5′-(1,2-ethynediyl)bis(2-((2S)-1-(3-pyridinylacetyl)-2-pyrrolidinyl)-1H-benzimidazole)]
The EC50 of the first is higher: 4.57 to 99 nM for the first, under 4.57 nM for the second.

First: CN(C)[C@@H](C(=O)N1CCC[C@H]1c1nc2cc(-c3cnc(-c4ccc5nc([C@@H]6CCCN6C(=O)[C@@H](c6ccccc6)N(C)C)[nH]c5c4)o3)ccc2[nH]1)c1ccccc1 [Example J20, (1R)-2-((2S)-2-(5-(2-(2-((2S)-1-((2R)-2-(dimethyl-amino)-2-phenylacetyl)-2-pyrrolidinyl)-1H-benzimidazol-6-yl)-1,3-oxazol-5-yl)-1H-benzimidazol-2-yl)-1-pyrrolidinyl)-N,N-dimethyl-2-oxo-1-phenyl-ethanamine]
Second: CC(=O)NC(C(=O)N1CCC[C@H]1c1nc2cc(-c3cnc(-c4cccc5[nH]c([C@@H]6CCCN6C(=O)C(NC(C)=O)c6ccccc6)nc45)o3)ccc2[nH]1)c1ccccc1 (mixture of isomers) [Example J12.1, N-((1R)-2-((2S)-2-(4-(5-(2-((2S)-1-((2R)-2-acetamido-2-phenylacetyl)-2-pyrrolidinyl)-1H-benzimidazol-5-yl)-1,3-oxazol-2-yl)-1H-benzimidazol-2-yl)-1-pyrrolidinyl)-2-oxo-1-phenylethyl) acetamide]
The EC50 of the first is lower: under 4.57 nM for the first, 4.57 to 99 nM for the second.

First: CN1CCN([C@@H](C(=O)N2CCC[C@H]2c2nc3cc(-c4cnc(-c5cccc6[nH]c([C@@H]7CCCN7C(=O)[C@@H](c7ccccc7)N7CCN(C)CC7)nc56)o4)ccc3[nH]2)c2ccccc2)CC1 [Example J14, 2-((2S)-1-((2R)-2-(4-methyl-1-piperazinyl)-2-phenylacetyl)-2-pyrrolidinyl)-4-(5-(2-((2S)-1-((2R)-2-(4-methyl-1-piperazinyl)-2-phenylacetyl)-2-pyrrolidinyl)-1H-benzimidazol-5-yl)-1,3-oxazol-2-yl)-1H-benzimidazole]
Second: O=C(Cc1ccccc1)N1CCC[C@H]1c1nc2cc(-c3cnc(-c4cccc5[nH]c([C@@H]6CCCN6C(=O)Cc6ccccc6)nc45)o3)ccc2[nH]1 [Example J7, 2-((2S)-1-(phenylacetyl)-2-pyrrolidinyl)-4-(5-(2-((2S)-1-(phenylacetyl)-2-pyrrolidinyl)-1H-benzimidazol-5-yl)-1,3-oxazol-2-yl)-1H-benzimidazole]
The EC50 of the first is lower: under 4.57 nM for the first, 4.57 to 99 nM for the second.

O=C([C@H](O)c1ccccc1)N1CCC[C@H]1c1nc2cc(C#Cc3ccc4[nH]c([C@@H]5CCCN5C(=O)[C@H](O)c5ccccc5)nc4c3)ccc2[nH]1 [Example M15, (1R,1′R)-2,2′-(1,2-ethynediylbis(1H-benzimidazole-5,2-diyl(2S)-2,1-pyrrolidinediyl))bis(2-oxo-1-phenylethanol)] and COC(=O)N[C@@H](C(=O)N1CCC[C@H]1c1nc2cc(C#Cc3ccc4[nH]c([C@@H]5CCCN5C(=O)[C@H](NC(=O)OC)c5ccccc5)nc4c3)ccc2[nH]1)c1ccccc1 [Example M23, dimethyl (1,2-ethynediylbis(1H-benzimidazole-5,2-diyl(2S)-2,1-pyrrolidinediyl((1R)-2-oxo-1-phenyl-2,1-ethanediyl)))biscarbamate] cannot be ordered by EC50: under 4.57 nM for the first, under 4.57 nM for the second.

First: C[C@H](NC(=O)OCc1ccccc1)c1nc2cc(CCc3ccc4[nH]c([C@H](C)NC(=O)OCc5ccccc5)nc4c3)ccc2[nH]1 [OL1, benzyl((1S)-1-(5-(2-(2-((1)-1-(((benzyloxy)carbonyl)amino)ethyl)-1H-benzimidazol-6-yl)ethyl)-1H-benzimidazol-2-yl)ethyl)carbamate]
Second: CC(=O)N1CCN(C(=O)OCc2ccccc2)[C@H](c2nc3cc(CCc4ccc5[nH]c([C@@H]6CN(C(C)=O)CCN6C(=O)OCc6ccccc6)nc5c4)ccc3[nH]2)C1 (stereo in doubt) [OL11, benzyl 4-acetyl-2-(5-(2-(2-(4-acetyl-1-((benzyloxy)carbonyl)-2-piperazinyl)-1H-benzimidazol-6-yl)ethyl)-1H-benzimidazol-2-yl)-1-piperazinecarboxylate]
The EC50 of the first is lower: 4.57 to 99 nM for the first, 100 to 999 nM for the second. The first is the more potent here.

First: O=C(c1cccs1)N1CCC[C@H]1c1nc2cc(CCc3ccc4[nH]c([C@@H]5CCCN5C(=O)c5cccs5)nc4c3)ccc2[nH]1 [Example M45.1, 5,5′-(1,2-ethanediyl)bis(2-((2S)-1-(2-thienylcarbonyl)-2-pyrrolidinyl)-1H-benzimidazole)]
Second: O=C(Cc1cccnc1)N1CCC[C@H]1c1nc2cc(CCc3ccc4[nH]c([C@@H]5CCCN5C(=O)Cc5cccnc5)nc4c3)ccc2[nH]1 [Example M45.2, 5,5′-(1,2-ethanediyl)bis(2-((2S)-1-(3-pyridinylacetyl)-2-pyrrolidinyl)-1H-benzimidazole)]
The EC50 of the first is higher: 100 to 999 nM for the first, 4.57 to 99 nM for the second. The second is the more potent here.

COC(=O)N[C@H](C(=O)N1[C@@H]2C[C@@H]2C[C@H]1c1nc2cc(-c3ccc(Oc4cccc5[nH]c([C@@H]6C[C@H]7C[C@H]7N6C(=O)[C@@H](NC(=O)OC)C(C)C)nc45)cc3)ccc2[nH]1)C(C)C [Example V6, Methyl((1S)-1-(((1R,3S,5R)-3-(4-(4-(2-((1R,3S,5R)-2-((2S)-2-((methoxycarbonyl)amino)-3-methylbutanoyl)-2-azabicyclo[3.1.0]hex-3-yl)-1H-benzimidazol-5-yl)phenoxy)-1H-benzimidazol-2-yl)-2-azabicyclo[3.1.0]hex-2-yl)carbonyl)-2-methylpropyl)carbamate] and COC(=O)N[C@@H](C(=O)N1CCC[C@H]1c1nc2cc(-c3ccc4nc([C@@H]5CCCN5C(=O)[C@H](NC(=O)OC)c5ccccc5)[nH]c4c3)ccc2[nH]1)c1ccccc1 [Example F2, dimethyl(1H,1′H-5,5′-bibenzimidazole-2,2′-diylbis((2S)-2,1-pyrrolidinediyl((1R)-2-oxo-1-phenyl-2,1-ethanediyl)))biscarbamate] cannot be ordered by EC50: under 4.57 nM for the first, under 4.57 nM for the second.

O=C(Cc1ccccc1)N1CCCC[C@H]1c1nc2ccc(CCc3ccc4nc([C@@H]5CCCCN5C(=O)Cc5ccccc5)[nH]c4c3)cc2[nH]1 [Example F3, 5,5′-(1,2-ethanediyl)bis(2-((2S)-1-(phenylacetyl)-2-piperidinyl)-1H-benzimidazole)] and O=C(CC1CC1)N1CCC[C@H]1c1nc2cc(CCc3ccc4nc([C@@H]5CCCN5C(=O)CC5CC5)[nH]c4c3)ccc2[nH]1 [Example M44, 2-((2S)-1-(cyclopropylacetyl)-2-pyrrolidinyl)-5-(2-(2-((2S)-1-(cyclopropylacetyl)-2-pyrrolidinyl)-1H-benzimidazol-6-yl)ethyl)-1H-benzimidazole] fall in the same range of EC50: 100 to 999 nM for the first, 100 to 999 nM for the second.

O=C([C@H]1CCCO1)N1C[C@H](O)C[C@H]1c1nc2cc(C#Cc3ccc4[nH]c([C@@H]5C[C@@H](O)CN5C(=O)[C@H]5CCCO5)nc4c3)ccc2[nH]1 [Example M47.1, (3R,5S,3′R,5′S)-5,5′-(1,2-ethynediylbis(1H-benzimidazole-5,2-diyl))bis(1-((2R)-tetrahydro-2-furanylcarbonyl)-3-pyrrolidinol)] gave an EC50 of 100 to 999 nM.

Same assay, conditions: Hepatitis C virus, HCV 1b genotype replicon; numeric values

For C[C@H](NC(=O)[C@@H](c1ccccc1)N(C)C)c1nc2c(-c3ncc(-c4ccc5[nH]c([C@@H]6CCCN6C(=O)[C@@H](c6ccccc6)N(C)C)nc5c4)o3)cccc2[nH]1 [Example J26, (2R)-2-(dimethyl-amino)-N-((1S)-1-(4-(5-(2-((2S)-1-((2R)-2-(dimethyl-amino)-2-phenylacetyl)-2-pyrrolidinyl)-1H-benzimidazol-5-yl)-1,3-oxazol-2-yl)-1H-benzimidazol-2-yl)ethyl)-2-phenyl-acetamide], the EC50 was 0.021 nM.
